Results published in patent US10695406B2, “Modulation of cellular stress using a B-cell oxidative and/or endoplasmic reticulum stress inhibitor and a targeting agent” (THE UNIVERSITY OF QUEENSLAND, priority 2014, dated 2020).

Tests used:
Murine MIN6N8 cells = assay: ERAI-sXBP1 reporter ER stress in MIN6N8 cells with 0.5 mM palmitate; assay type: cell-based
Procedure: Cell culture: Murine MIN6N8 cells were tested negative for mycoplasma. Cells were routinely cultured in phenol-red free DMEM (Life Technologies) containing 25 mM glucose (3.4 g/L sodium bicarbonate, 50 U/mL penicillin and streptomycin, 71.5 μM β-mercaptoethanol and 10% heat inactivated fetal bovine serum) and transferred to DMEM as above with 5.5 mM glucose 48 h prior to experimentation. Human LS174T cells were cultured in DMEM containing 10% heat-inactivated fetal bovine serum, 50 U mL^−1 penicillin and streptomycin.
ER Stress Measurement: MIN6N8 cells were transfected with the ERAI reporter plasmid (F-XBP1ΔDBD-venus, using Lipofectamine 2000 according to the manufacturer's instructions. For ERAI there was negligible fluorescence in the absence of ER stressors, but upon induction of ER stress, splicing of XBP1 mRNA by IRE1a results in the translation of Venus but not an active form of XBP1. Fluorescence was measured (excitation: 485 nm; emission: 520 nm) using a POLARstar Omega plate reader and cells were treated 48 h after transfection. […] After 24 h, ERAI-sXBP1 GFP reporter fluorescence was measured.

[1] = Clearance of IL-22 and IL-22 fusion proteins from serum; assay type: in vivo, C57BL/6 mice; conditions: 256 ng/g human IL-22 or molar equivalents, i.p.
Procedure: Targeting to IL-22 to pancreas: Non-obese male C57BL/6 at 6-8 weeks of age. Each IL-22-GLP-1R ligand fusion protein or hIL-22 was administered i.p. at 256 ng/g of IL-22 and the molar equivalents for the individual fusion proteins (n=3 per regimen). IL-22-ScaB1 was administered at […]. Control mice received a PBS control i.p. injection only.
Serum concentrations of IL-22 and the IL-22-GLP-1R ligand fusion proteins were determined using a human IL-22 double-determinant ELISA (Biolegend; 434505) against a standard curve for the individual fusion proteins.

[2] = tested on: mice with high fat diet induced obesity; assay: Dose-finding efficacy study (IPGTT) in mice on a high fat diet for 27 weeks; assay type: in vivo, C57BL/6 male mice
Procedure: C57BL/6 male mice from 6-8 weeks of age were fed a high fat diet containing 46% of available energy as saturated fat, 34% carbohydrate, 20% protein (Speciality feeds, SF04-027) for 27 weeks and treated as follows:
IL-22-GLP-1R ligand fusion protein or IL-22 alone were administered twice weekly i.p. at the following doses: 1, 4, 16, 64 and 256 ng/g of IL-22 (0.12-15.4 nmoles/g) and the molar equivalents for IL-22-GLP-1 fusion proteins (n=3 per regimen, except for the lowest dose where n=2); control mice received PBS control only. A fasted Intraperitoneal glucose tolerance tests (IPGTT) was performed (2 g kg-i glucose) on day 14 when the experiment was terminated (tissues were not kept for analysis). Body weight was recorded on days 0, 5, 10 and 13.

human IL-22: recombinant human IL-22
ER stress caused by the protein alone (Murine MIN6N8 cells; 15.4 nM, 24 hours, no palmitate): did not cause ER stress | fold more protein required for the same effect as recombinant mouse IL-22 in reducing ER stress (Murine MIN6N8 cells; murine MIN6N8 cells, 0.5 mM palmitate, 24 h): ~16 fold | clearance / serum concentration over the first 2 hours [1]: cleared slightly more slowly | body weight changes during treatment ([2]; days 0, 5, 10 and 13): little change in body weight | mean reduction in the increased AUC of the IPGTT of HFD vs normal chow fed control mice ([2]; doses >0.96 nmoles/g, two-week therapy): > 50% | efficacy in IPGTT below 0.96 nmoles/g ([2]; two lowest doses): diminished substantially
